From patent publication US20070196484A1, “Poorly water-soluble drug-containing solid formulation” (priority 2004, published 2007) come the findings set out here.

Values after ≈ are worked out from the molar mass of the structure shown.

In general, solubility refers to the dissolved amount per volume that the medium holds. Read a low solubility as little dissolved substance.

A short description of series [1]: Solubility of bisacodyl in the co-existence of dioctyl sodium sulfosuccinate. It is filed as physicochemical. The conditions noted are these: for solubility at 5 h: thermodynamic from solid. The method, then: Variation in solubility of bisacodyl was studied in the co-existence of bisacodyl and dioctyl sodium sulfosuccinate. Bisacodyl was dispersed in purified water and the dispersion was shaken under given conditions for 5 hours. The resulting liquid was centrifuged at 3000 min^−1 for 5 min. Then, the supernatant was collected and the amount of dissolved bisacodyl was determined by HPLC. In a similar manner, bisacodyl was dispersed in solutions containing dioctyl sodium sulfosuccinate at 0.07%, 0.14% and 0.35%. Each dispersion was shaken and centrifuged at 3000 min^−1 for 5 min. Then, the supernatant was collected and the amount of dissolved bisacodyl was determined by HPLC.

The test system of series [2] is SD male rats. In words: Intra-ileal administration test, onset of catharsis. It is filed as in vivo, rat. To be noted: bisacodyl 2 mg/kg, DSS 3.2 mg/kg, observed 24 hours, FIG. 3. The method, then:
(§1) SD male rats were used in 10 animals per group. Test substances used were bisacodyl alone (2 mg/kg), DSS alone (3.2 mg/kg) and bisacodyl (2 mg/kg)+DSS (3.2 mg/kg).
A rat underwent laparotomy under ether anesthesia and a test substance was injected via a syringe into an ileum at 20 cm to the mouth from the ileocecum at a dose of 1 mL/kg rat weight.

Series [3] concerns SD male rats. In words: Oral administration test, onset of catharsis. In kind it is in vivo, rat. To be noted: bisacodyl 2 mg/kg, DSS 3.2 mg/kg, observed 24 hours, FIG. 3. How it is done:
as §1

In the case of `CC(=O)Oc1ccc(C(c2ccc(OC(C)=O)cc2)c2ccccn2)cc1` [Bisacodyl], the solubility at 5 h in series [1] (0.07% dioctyl sodium sulfosuccinate aqueous solution, aqueous with cosolvent or surfactant or cyclodextrin, Sample 1: 0.07% DSS aq.) stood at 3.62 µg/mL (≈ 10 µM); in series [1] (0.14% dioctyl sodium sulfosuccinate aqueous solution, aqueous with cosolvent or surfactant or cyclodextrin, Sample 2: 0.14% DSS aq.), 4.51 µg/mL (≈ 12.5 µM); in series [1] (0.35% dioctyl sodium sulfosuccinate aqueous solution, aqueous with cosolvent or surfactant or cyclodextrin, Sample 3: 0.35% DSS aq.), 12.7 µg/mL (≈ 35.1 µM); in series [1] (Control: purified water, 0% DSS, shaken 5 hours) it was 1.89 µg/mL (≈ 5.23 µM). The figures for the “Proportion to control (solubility of bisacodyl)” value in series [1] (Sample 1: 0.07% DSS aq.), in series [1] (Sample 2: 0.14% DSS aq.) and in series [1] (Sample 3: 0.35% DSS aq.) were 191.5%, 238.6% and 672.0%, respectively.
In the case of `CCCCC(CC)COC(=O)CC(C(=O)OCC(CC)CCCC)S(=O)(=O)[O-].[Na+]` (stereo not drawn) [DSS, Dioctyl sodium sulfosuccinate], the “Cathartic effect (catharsis incidence)” value with SD male rats [2] and in the series on SD male rats [3] was “cathartic effect was not observed” throughout.
